Test results from ChEMBL document CHEMBL5365461, “Degradation of Cyclin-Dependent Kinase 9/Cyclin T1 by Optimized Microtubule-Associated Protein 1 Light Chain 3 Beta-Recruiting Coumarin Analogs” (J Med Chem, 2023).
Active and inactive are the calls of the source. The rule behind the calls is not given here.

Tests used:
[1] = target: Cyclin-dependent kinase 9 (Homo sapiens) (UniProt P50750); test: Induction of CDK9 42 kDa degradation in human U2932 cells at 500 nM incubated for 12 hrs in presence of MG132 by immunoblotting analysis; format: cell-based
Sequence of Cyclin-dependent kinase 9 (Homo sapiens) (P50750 whole entry): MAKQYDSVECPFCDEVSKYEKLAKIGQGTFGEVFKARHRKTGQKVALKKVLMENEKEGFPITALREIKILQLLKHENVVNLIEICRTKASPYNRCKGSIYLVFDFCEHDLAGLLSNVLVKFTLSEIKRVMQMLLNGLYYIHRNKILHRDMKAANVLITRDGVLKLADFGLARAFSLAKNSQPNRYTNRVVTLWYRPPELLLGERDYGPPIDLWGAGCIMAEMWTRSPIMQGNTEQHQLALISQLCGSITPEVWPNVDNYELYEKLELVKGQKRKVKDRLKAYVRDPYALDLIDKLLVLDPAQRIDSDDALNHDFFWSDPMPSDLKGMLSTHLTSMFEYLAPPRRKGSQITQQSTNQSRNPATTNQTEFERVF

[2] = target: Cyclin-dependent kinase 9 (Homo sapiens) (UniProt P50750); test: Induction of CDK9 55 kDa degradation in human U2932 cells at 500 nM incubated for 12 hrs in presence of BafA1 by immunoblotting analysis; format: cell-based
[3] = test system: U2932; test: Induction of apoptosis in human U2932 cells assessed as necrotic cells at 1000 nM incubated for 24 hrs by AnnexinV-FITC/PI staining based flow cytometry analysis (reference value: 0.92%); format: functional
[4] = target: Cyclin-dependent kinase 1 (Homo sapiens) (UniProt P06493); test: Induction of CDK1 degradation in human U2932 cells at 100 nM incubated for 24 hrs by immunoblotting analysis; format: cell-based
Sequence of Cyclin-dependent kinase 1 (Homo sapiens) (P06493 whole entry, looked up): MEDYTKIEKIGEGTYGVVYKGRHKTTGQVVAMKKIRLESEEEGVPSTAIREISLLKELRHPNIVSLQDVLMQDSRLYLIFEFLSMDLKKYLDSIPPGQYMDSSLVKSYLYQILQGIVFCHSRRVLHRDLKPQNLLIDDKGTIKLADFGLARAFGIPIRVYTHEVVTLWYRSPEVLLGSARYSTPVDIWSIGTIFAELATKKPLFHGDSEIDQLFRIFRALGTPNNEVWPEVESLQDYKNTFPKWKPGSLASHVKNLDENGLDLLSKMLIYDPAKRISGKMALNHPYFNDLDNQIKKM

[5] = target: Cyclin-dependent kinase 9 (Homo sapiens) (UniProt P50750); test: Induction of CDK9 55 kDa degradation in human U2932 cells assessed as maximal efficacy at 1 to 1000 nM by immunoblotting analysis relative to control; format: cell-based; conditions: dose 1-1000 nM
[6] = AUC(0 to t) in CD-1 mouse at 1 mg/kg, iv measured after 24 hrs by LC-MS/MS analysis; format: ADME, organism-based; parameters: time 24 hrs, dose 1 mg/kg, route iv; conditions: in vivo
[7] = test system: MV4-11; test: Downregulation of c-Myc protein level in human MV4-11 cells incubated for 6 hrs by RT-qPCR analysis; format: functional, cell-based; conditions: dose 10-1000 nM
[8] = target: CDK9/cyclin T1 (Homo sapiens) (UniProt O60563+P50750); test: Induction of CDK9/CyclinT1 degradation in human U2932 cells at 100 nM measured after 24 hrs by immunoblotting analysis; format: cell-based
[9] = target: Cyclin-dependent kinase 9 (Homo sapiens) (UniProt P50750); test: Induction of CDK9 42 kDa degradation in human U2932 cells at 100 nM by immunoblotting analysis; format: cell-based; conditions: time 1-24 hrs, TDE = time-dependent effect
[10] = test system: U2932; test: Cytotoxicity against human U2932 cells assessed as inhibition of cell growth measured after 72 hrs by CCK-8 assay; format: functional, cell-based; conditions: U2932, 72 h
[11] = test system: U2932; test: Downregulation of c-Myc protein level in human U2932 cells incubated for 6 hrs by RT-qPCR analysis; format: functional, cell-based; conditions: dose 10-1000 nM
[12] = target: Cyclin-dependent kinase 9 (Homo sapiens) (UniProt P50750); test: Induction of CDK9 42 kDa degradation in human U2932 cells at 500 nM incubated for 12 hrs in presence of HCQ by immunoblotting analysis; format: cell-based
[13] = AUC(0 to t) in CD-1 mouse at 5 mg/kg, ip measured after 24 hrs by LC-MS/MS analysis; format: ADME, organism-based; parameters: dose 5 mg/kg, time 24 hrs, route ip; conditions: in vivo
[14] = test system: MV4-11; test: Antitumor activity against human MV4-11 cells xenografted in mouse assessed as reduction in CDK9 level in tumor at 5 mg/kg, ip qd measured after 15 days by immunoblotting analysis; format: functional, organism-based; conditions: time 15.0 day
[15] = test system: MV4-11; test: Antitumor activity against human MV4-11 cells xenografted in mouse assessed as reduction in c-Myc level in tumor at 5 mg/kg, ip qd measured after 15 days by immunoblotting analysis; format: functional, organism-based; conditions: time 15.0 day
[16] = Toxicity in mouse xenografted with human MV4-11 cells assessed as change in body weight at 5 mg/kg, ip qd measured after 15 days; format: organism-based; conditions: in vivo, 360 h, time 15 day
[17] = test system: MV4-11; test: Antitumor activity against human MV4-11 cells xenografted in mouse assessed as tumor growth inhibition at 5 mg/kg, ip qd measured after 15 days; format: functional; conditions: MV4-11, 360 h, time 15 day, read-out: TGI
[18] = test system: MV4-11; test: Antitumor activity against human MV4-11 cells xenografted in mouse assessed as reduction in tumor growth at 5 mg/kg, ip qd measured after 15 days; format: functional, organism-based; conditions: time 15.0 day
[19] = test system: MV4-11; test: Antitumor activity against human MV4-11 cells xenografted in mouse assessed as reduction in Mcl level in tumor at 5 mg/kg, ip qd measured after 15 days by immunoblotting analysis; format: functional, organism-based; conditions: time 15.0 day

Cc1cc(=O)oc2cc(OCCCN3CCC(C(=O)Nc4ncc(SCc5ncc(C(C)(C)C)o5)s4)CC3)cc(O)c12
Activity [1]: Active | Activity [2]: inactive | Activity [3]: 2.08% | Activity [4]: Active | Emax [5]: 46% | AUC(0-t) at 24 h [6]: 0.116 µg·h/mL | Activity [7]: Dose-Dependent Effect | Activity [8]: Active | Activity [9]: Tde | IC50 [10]: 0.045 µM | Activity [11]: Active | Activity [12]: inactive | AUC(0-t) at 24 h [13]: 0.143 µg·h/mL

Cc1cc(=O)oc2cc(O)cc(OCCCCCN3CCC(C(=O)Nc4ncc(SCc5ncc(C(C)(C)C)o5)s4)CC3)c12
Activity [1]: Active | Activity [14]: Active | Activity [15]: Active | Activity [2]: inactive | Activity [16]: Non-Toxic | Activity [3]: 2.12% | Emax [5]: 54.8% | AUC(0-t) at 24 h [6]: 0.0723 µg·h/mL | inhibition in vivo at 5 mg/kg [17]: 52% | Activity [7]: Dose-Dependent Effect | Activity [18]: Active | Activity [19]: Active | Activity [9]: Tde | IC50 [10]: 0.045 µM | Activity [11]: Active | Activity [12]: inactive | AUC(0-t) at 24 h [13]: 0.156 µg·h/mL
